According to the NIST ThermoML archive (doi:10.1016/j.jct.2005.03.013):
± gives the expanded uncertainty stated by the source.

Legend:
[1] = for viscosity: 101.33 kPa, Liquid
[2] = molar heat capacity at constant pressure; details: 101.33 kPa, Liquid, Large sample (1 g) DSC

SMILES | viscosity ([1]; 283 K) | viscosity ([1]; 293 K) | viscosity ([1]; 298 K) | viscosity ([1]; 303 K) | viscosity ([1]; 313 K) | viscosity ([1]; 323 K) | viscosity ([1]; 333 K) | viscosity ([1]; 343 K) | Glass transition temperature [1] | molar heat capacity at constant pressure ([2]; 298 K) | molar heat capacity at constant pressure ([2]; 323 K) | Triple point temperature ([1]; Crystal) | Triple point temperature ([1]; Metastable crystal)
CCOC(=O)c1ccc[n+](CC)c1.CCOS(=O)(=O)[O-] [3-(ethoxycarbonyl)-1-ethylpyridinium ethylsulfate] | 19610 ± 4800 mPa·s | 5675 ± 1200 mPa·s | 3173 ± 570 mPa·s | 1986 ± 310 mPa·s | 846 ± 110 mPa·s | 405 ± 40 mPa·s | 221 ± 17 mPa·s | 130 ± 9 mPa·s | -44 ± 3 °C | 513 ± 52 J/K/mol | 530 ± 54 J/K/mol | – | –
CCOS(=O)(=O)[O-].CC[n+]1cccc(C)c1 [1-ethyl-3-methylpyridinium ethylsulfate] | 414 ± 39 mPa·s | 204 ± 17 mPa·s | 150 ± 10 mPa·s | 114 ± 7 mPa·s | 70 ± 4 mPa·s | 45 ± 2 mPa·s | 32 ± 2 mPa·s | 23 ± 1 mPa·s | -71 ± 3 °C | 389 ± 39 J/K/mol | 402 ± 41 J/K/mol | – | –
CCCCCC[n+]1cccc(C)c1.O=S(=O)([N-]S(=O)(=O)C(F)(F)F)C(F)(F)F | 197 ± 14 mPa·s | 110 ± 7 mPa·s | 85 ± 5 mPa·s | 67 ± 4 mPa·s | 44 ± 2 mPa·s | 30 ± 2 mPa·s | 22 ± 1 mPa·s | 16 ± 1 mPa·s | -82 ± 4 °C | 624 ± 63 J/K/mol | 644 ± 65 J/K/mol | – | –
CCCCCC[n+]1ccccc1.O=S(=O)([N-]S(=O)(=O)C(F)(F)F)C(F)(F)F [1-hexylpyridinium bis(trifluromethylsulfonyl)imide] | 189 ± 14 mPa·s | 106 ± 7 mPa·s | 80 ± 5 mPa·s | 64 ± 3 mPa·s | 42 ± 2 mPa·s | 29 ± 2 mPa·s | 21 ± 1 mPa·s | 16 ± 1 mPa·s | -77 ± 4 °C | 612 ± 62 J/K/mol | 632 ± 64 J/K/mol | 273 ± 3 K | –
CCCCCCCC[n+]1ccn(C)c1.F[B-](F)(F)F [1-methyl-3-octylimidazolium tetrafluoroborate] | – | – | – | – | – | – | – | – | -81 ± 4 °C | 506 ± 51 J/K/mol | 526 ± 53 J/K/mol | – | –
CCCCCC[n+]1ccn(C)c1.O=S(=O)([N-]S(=O)(=O)C(F)(F)F)C(F)(F)F | 148 ± 10 mPa·s | 86 ± 5 mPa·s | 68 ± 4 mPa·s | 55 ± 3 mPa·s | 37 ± 2 mPa·s | 26 ± 1 mPa·s | 19 ± 1 mPa·s | 15 ± 1 mPa·s | -84 ± 4 °C | 583 ± 59 J/K/mol | 604 ± 61 J/K/mol | – | 266 ± 3 K
